Reference: ChEMBL document CHEMBL3860091, “Synthesis and activity of newly designed aroxyalkyl or aroxyethoxyethyl derivatives of piperazine on the cardiovascular and the central nervous systems” (Bioorg Med Chem Lett, 2016)

Columns and labels:
[1] = target: T1, Adrenergic receptor alpha-2 (Rattus norvegicus, UniProt P22086+P19328+P22909); test: Displacement of [3H]clonidine from alpha2 adrenergic receptor in rat brain cerebral cortex after 25 mins by microbeta scintillation counting method; type: tissue-based
T1 sequence (P22086 whole entry): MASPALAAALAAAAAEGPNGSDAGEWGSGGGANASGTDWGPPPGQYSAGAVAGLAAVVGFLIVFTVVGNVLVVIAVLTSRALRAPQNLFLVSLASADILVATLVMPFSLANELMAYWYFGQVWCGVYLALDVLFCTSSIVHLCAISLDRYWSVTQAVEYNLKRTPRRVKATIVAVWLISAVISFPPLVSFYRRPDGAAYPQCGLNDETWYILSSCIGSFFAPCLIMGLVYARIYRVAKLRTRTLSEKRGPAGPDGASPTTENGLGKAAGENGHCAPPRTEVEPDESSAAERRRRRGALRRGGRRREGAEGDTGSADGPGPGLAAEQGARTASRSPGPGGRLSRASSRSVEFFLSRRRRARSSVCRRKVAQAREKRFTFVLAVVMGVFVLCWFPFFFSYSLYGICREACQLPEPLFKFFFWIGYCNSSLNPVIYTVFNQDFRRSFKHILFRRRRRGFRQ
T1 sequence (P19328 whole entry): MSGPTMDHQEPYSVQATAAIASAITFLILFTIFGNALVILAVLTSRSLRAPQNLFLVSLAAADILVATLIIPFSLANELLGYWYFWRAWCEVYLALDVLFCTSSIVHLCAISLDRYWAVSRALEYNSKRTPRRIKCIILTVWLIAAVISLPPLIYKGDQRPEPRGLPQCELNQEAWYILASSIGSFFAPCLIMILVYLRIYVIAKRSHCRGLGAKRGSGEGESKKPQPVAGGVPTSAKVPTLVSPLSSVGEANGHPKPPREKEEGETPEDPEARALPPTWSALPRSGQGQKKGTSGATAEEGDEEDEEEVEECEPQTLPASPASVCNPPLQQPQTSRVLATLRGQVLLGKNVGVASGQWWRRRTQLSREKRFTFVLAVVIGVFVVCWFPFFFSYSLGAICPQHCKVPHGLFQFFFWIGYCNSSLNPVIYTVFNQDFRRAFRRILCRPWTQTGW
T1 sequence (P22909 whole entry): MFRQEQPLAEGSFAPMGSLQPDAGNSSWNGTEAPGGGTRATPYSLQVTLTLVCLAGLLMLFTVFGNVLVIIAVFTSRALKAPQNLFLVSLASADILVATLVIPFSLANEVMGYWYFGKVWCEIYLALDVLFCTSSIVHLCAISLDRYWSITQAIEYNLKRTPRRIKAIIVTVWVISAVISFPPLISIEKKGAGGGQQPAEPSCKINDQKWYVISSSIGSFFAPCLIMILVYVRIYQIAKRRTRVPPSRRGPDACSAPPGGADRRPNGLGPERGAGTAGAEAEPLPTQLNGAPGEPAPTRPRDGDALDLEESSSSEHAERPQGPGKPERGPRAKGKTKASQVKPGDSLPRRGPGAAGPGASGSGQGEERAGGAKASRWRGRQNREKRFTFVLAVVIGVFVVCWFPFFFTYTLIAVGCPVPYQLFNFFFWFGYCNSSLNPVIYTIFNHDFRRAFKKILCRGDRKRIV

Rattus norvegicus [2] = test: Hypotensive activity in normotensive anesthetized Wistar rat assessed as systolic blood pressure at 1 mg/kg, iv measured 30 mins post dose (reference value: 107.4 to 148.3 mmHg); type: functional
Rattus norvegicus [3] = test: Hypotensive activity in normotensive anesthetized Wistar rat assessed as diastolic blood pressure at 1 mg/kg, iv measured 60 mins post dose (reference value: 81.6 to 115.2 mmHg); type: functional
Rattus norvegicus [4] = test: Hypotensive activity in normotensive anesthetized Wistar rat assessed as diastolic blood pressure at 1 mg/kg, iv measured 5 mins post dose (reference value: 81.6 to 115.2 mmHg); type: functional
Rattus norvegicus [5] = test: Hypotensive activity in normotensive anesthetized Wistar rat assessed as systolic blood pressure at 1 mg/kg, iv measured 10 mins post dose (reference value: 107.4 to 148.3 mmHg); type: functional
Rattus norvegicus [6] = test: Hypotensive activity in normotensive anesthetized Wistar rat assessed as diastolic blood pressure at 1 mg/kg, iv measured 30 mins post dose (reference value: 81.6 to 115.2 mmHg); type: functional
[7] = Antidepressant-like activity in albino Swiss (CD-1) mouse assessed as immobility time at 10 mg/kg, ip administered 30 mins prior to test measured for last 4 mins of 6 mins observation by forced swim test (reference value: 178.3 +/- 12.3 sec); type: functional, organism-based
Rattus norvegicus [8] = test: Hypotensive activity in normotensive anesthetized Wistar rat assessed as systolic blood pressure at 1 mg/kg, iv measured 5 mins post dose (reference value: 107.4 to 148.3 mmHg); type: functional
[9] = target: Adrenergic receptor alpha-1 (Rattus norvegicus) (UniProt P15823+P23944+P43140); test: Antagonist activity at alpha1 adrenergic receptor in Wistar rat aorta assessed as inhibition of naradrenaline-induced aortic contraction preincubated for 30 mins followed by naradrenaline stimulation for 3 hrs at 60 mins interval in presence of alpha2 adrenergic receptor blocker yohimbine and beta adrenergic receptor blocker propranolol
[10] = target: T2, 5-hydroxytryptamine receptor 1A (Homo sapiens, UniProt P08908); test: Displacement of [3H]8-OH-DPAT from human recombinant 5-HT1A receptor expressed in membranes after 60 mins by microbeta scintillation counting method
T2 sequence (P08908 whole entry): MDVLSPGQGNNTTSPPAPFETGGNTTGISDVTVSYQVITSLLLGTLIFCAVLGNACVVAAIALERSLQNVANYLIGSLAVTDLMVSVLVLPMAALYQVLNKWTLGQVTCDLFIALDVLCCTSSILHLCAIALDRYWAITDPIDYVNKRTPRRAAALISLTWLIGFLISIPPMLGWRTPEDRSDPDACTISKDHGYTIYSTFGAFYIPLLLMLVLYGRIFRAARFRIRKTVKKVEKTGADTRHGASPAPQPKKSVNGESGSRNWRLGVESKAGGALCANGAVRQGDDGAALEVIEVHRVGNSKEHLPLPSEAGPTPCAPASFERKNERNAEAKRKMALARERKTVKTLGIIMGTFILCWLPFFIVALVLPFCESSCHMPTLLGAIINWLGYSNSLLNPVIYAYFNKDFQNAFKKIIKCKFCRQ

Rattus norvegicus [11] = test: Hypotensive activity in normotensive anesthetized Wistar rat assessed as diastolic blood pressure at 1 mg/kg, iv measured 20 mins post dose (reference value: 81.6 to 115.2 mmHg); type: functional
Rattus norvegicus [12] = test: Hypotensive activity in normotensive anesthetized Wistar rat assessed as systolic blood pressure at 1 mg/kg, iv measured 20 mins post dose (reference value: 107.4 to 148.3 mmHg); type: functional
Rattus norvegicus [13] = test: Hypotensive activity in normotensive anesthetized Wistar rat assessed as diastolic blood pressure at 1 mg/kg, iv measured 10 mins post dose (reference value: 81.6 to 115.2 mmHg); type: functional

Sequence of Adrenergic receptor alpha-1 (Rattus norvegicus) (P15823 whole entry, looked up): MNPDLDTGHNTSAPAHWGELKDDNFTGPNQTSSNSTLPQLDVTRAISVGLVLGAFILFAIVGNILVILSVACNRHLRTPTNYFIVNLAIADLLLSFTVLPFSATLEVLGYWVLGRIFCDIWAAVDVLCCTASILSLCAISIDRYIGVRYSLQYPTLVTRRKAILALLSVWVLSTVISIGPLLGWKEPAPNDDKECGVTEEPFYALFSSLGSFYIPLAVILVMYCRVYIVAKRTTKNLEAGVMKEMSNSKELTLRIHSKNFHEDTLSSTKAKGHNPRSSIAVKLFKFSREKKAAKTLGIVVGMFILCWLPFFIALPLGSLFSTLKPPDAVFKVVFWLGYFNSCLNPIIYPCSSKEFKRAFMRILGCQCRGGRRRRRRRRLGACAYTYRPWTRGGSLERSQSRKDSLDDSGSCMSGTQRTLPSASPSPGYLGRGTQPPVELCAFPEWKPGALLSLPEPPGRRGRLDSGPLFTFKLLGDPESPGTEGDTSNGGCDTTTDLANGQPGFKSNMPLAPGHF
Sequence of Adrenergic receptor alpha-1 (Rattus norvegicus) (P23944 whole entry, looked up): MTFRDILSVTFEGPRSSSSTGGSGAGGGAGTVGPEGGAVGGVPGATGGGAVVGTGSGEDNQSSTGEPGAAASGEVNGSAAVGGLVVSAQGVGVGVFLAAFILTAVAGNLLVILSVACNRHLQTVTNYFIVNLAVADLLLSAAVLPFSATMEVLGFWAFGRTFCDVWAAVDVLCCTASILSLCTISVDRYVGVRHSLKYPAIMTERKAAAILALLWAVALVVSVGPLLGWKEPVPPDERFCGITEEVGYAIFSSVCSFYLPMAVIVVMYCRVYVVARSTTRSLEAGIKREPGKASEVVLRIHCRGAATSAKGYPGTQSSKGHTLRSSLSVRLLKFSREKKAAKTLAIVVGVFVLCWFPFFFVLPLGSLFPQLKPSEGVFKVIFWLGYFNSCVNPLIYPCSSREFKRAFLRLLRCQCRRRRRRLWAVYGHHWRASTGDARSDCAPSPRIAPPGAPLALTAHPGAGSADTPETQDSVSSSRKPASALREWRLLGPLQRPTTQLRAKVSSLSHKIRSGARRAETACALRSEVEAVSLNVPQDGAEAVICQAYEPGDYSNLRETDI
Sequence of Adrenergic receptor alpha-1 (Rattus norvegicus) (P43140 whole entry, looked up): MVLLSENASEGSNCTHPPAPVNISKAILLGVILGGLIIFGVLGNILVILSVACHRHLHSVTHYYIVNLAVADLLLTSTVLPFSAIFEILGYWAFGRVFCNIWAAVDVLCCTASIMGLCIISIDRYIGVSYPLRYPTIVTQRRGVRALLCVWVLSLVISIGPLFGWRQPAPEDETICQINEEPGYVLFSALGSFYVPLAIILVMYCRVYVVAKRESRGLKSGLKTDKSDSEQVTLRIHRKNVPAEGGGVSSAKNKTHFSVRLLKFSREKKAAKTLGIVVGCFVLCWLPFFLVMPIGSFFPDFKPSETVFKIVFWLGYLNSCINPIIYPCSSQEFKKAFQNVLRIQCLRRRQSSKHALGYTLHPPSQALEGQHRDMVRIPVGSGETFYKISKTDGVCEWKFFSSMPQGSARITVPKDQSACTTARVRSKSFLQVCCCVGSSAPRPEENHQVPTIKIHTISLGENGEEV

| SMILES | Ki [1] [nM] | inhibition [9] | pKb [9] | Ki [10] [nM] | Activity (Rattus norvegicus [2]) [mmHg] | Activity (Rattus norvegicus [3]) [mmHg] | Activity (Rattus norvegicus [4]) [mmHg] | Activity (Rattus norvegicus [5]) [mmHg] | Activity (Rattus norvegicus [6]) [mmHg] | TIME [7] [h] | Activity (Rattus norvegicus [8]) [mmHg] | Activity (Rattus norvegicus [11]) [mmHg] | Activity (Rattus norvegicus [12]) [mmHg] | Activity (Rattus norvegicus [13]) [mmHg] |
| --- | --- | --- | --- | --- | --- | --- | --- | --- | --- | --- | --- | --- | --- | --- |
| Cc1cccc(OCCCN2CCN(c3ccccc3)CC2)c1C.Cl.Cl | 810 | Dose-dependent effect | 7.97 | 5.4 | 135.8 | 109.7 | 111.8 | 138 | 109 | 0.048 | 143.8 | 110.8 | 138 | 112.8 |
| Cc1cccc(OCCN2CCN(c3ccccc3)CC2)c1C.Cl.Cl | 289 | Dose-dependent effect | 8.75 | 12.3 | 93 | 67.6 | 75.2 | 97.2 | 67.6 | 0.0446 | 99.8 | 71.8 | 96 | 75 |
| Cc1cccc(Cl)c1OCCCCN1CCN(c2ccccc2)CC1.Cl.Cl | 505.7 | Dose-dependent effect | 8.37 | 4 | 123.5 | 95.2 | 103.7 | 127.7 | 97.7 | 0.0193 | 129.3 | 98.8 | 126.2 | 102.2 |

Further lines, with some results ahead:

| Ki [1] [nM] | inhibition [9] | pKb [9] | Ki [10] [nM] | SMILES | Activity (Rattus norvegicus [2]) [mmHg] | Activity (Rattus norvegicus [3]) [mmHg] | Activity (Rattus norvegicus [4]) [mmHg] | Activity (Rattus norvegicus [5]) [mmHg] | Activity (Rattus norvegicus [6]) [mmHg] | TIME [7] [h] | Activity (Rattus norvegicus [8]) [mmHg] | Activity (Rattus norvegicus [11]) [mmHg] | Activity (Rattus norvegicus [12]) [mmHg] | Activity (Rattus norvegicus [13]) [mmHg] |
| --- | --- | --- | --- | --- | --- | --- | --- | --- | --- | --- | --- | --- | --- | --- |
| 893 | Dose-dependent effect | 8.76 | 5 | COc1ccccc1N1CCN(CCOCCOc2cccc(C)c2C)CC1.Cl.Cl | 131 | 104 | 105 | 131 | 105.6 | 0.0331 | 129.8 | 105.4 | 130.4 | 106 |
| 370.5 | Dose-dependent effect | 8.54 | 2 | COc1ccccc1N1CCN(CCCCOc2c(C)cccc2C)CC1.Cl | 125.5 | 103.8 | 109.8 | 126.2 | 102 | 0.0398 | 129.5 | 103 | 124.3 | 105.2 |
